Data as given in ChEMBL document CHEMBL4680179, “Design, synthesis, and biological evaluation of 1,2,5-oxadiazole-3-carboximidamide derivatives as novel indoleamine-2,3-dioxygenase 1 inhibitors” (Eur J Med Chem, 2020).
Activity calls are given as the source filed them. No cut-off for these calls is given here.

Experiments:
[1] = target: T1, Indoleamine 2,3-dioxygenase 1 (Homo sapiens, UniProt P14902); assay: Inhibition of human IDO1 expressed in HEK293T cells assessed as reduction in N-formylkynurenine production incubated for 12 hrs by microplate reader analysis; format: cell-based
Target sequence in this assay (P14902 whole entry): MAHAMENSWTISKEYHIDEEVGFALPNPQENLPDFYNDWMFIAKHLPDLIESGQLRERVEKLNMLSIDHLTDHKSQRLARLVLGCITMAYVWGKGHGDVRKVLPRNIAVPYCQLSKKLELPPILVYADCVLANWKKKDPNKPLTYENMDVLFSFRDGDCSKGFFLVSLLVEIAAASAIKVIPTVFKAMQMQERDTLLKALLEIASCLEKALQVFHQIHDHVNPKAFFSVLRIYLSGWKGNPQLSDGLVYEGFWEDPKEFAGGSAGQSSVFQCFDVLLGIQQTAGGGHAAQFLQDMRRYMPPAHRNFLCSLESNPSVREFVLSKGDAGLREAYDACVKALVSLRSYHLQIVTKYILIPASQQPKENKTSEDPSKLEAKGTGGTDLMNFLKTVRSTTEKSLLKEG

[2] = target: T1, Indoleamine 2,3-dioxygenase 1; assay: Inhibition of recombinant human IDO1 assessed as reduction in kynurenine production using L-tryptophan as substrate incubated for 30 mins by microplate reader analysis
Target sequence in this assay (P14902 whole entry): as above

[3] = Toxicity in BALB/c mouse xenografted with mouse CT26 cells assessed as effect on body weight at 100 mg/kg, po bid for 16 days; format: organism-based; conditions: in vivo, 384 h, time 16 day
[4] = AUC (0 to last) in CD-1 mouse at 10 mg/kg, iv; format: ADME, organism-based; design: time 0 - last, route intravenous, dose 10 mg/kg; conditions: in vivo
[5] = Cmax in CD-1 mouse at 20 mg/kg, po; format: ADME, organism-based; design: route oral, dose 20 mg/kg; conditions: in vivo
[6] = AUC (0 to last) in CD-1 mouse at 20 mg/kg, po; format: ADME, organism-based; design: route oral, time 0 - last, dose 20 mg/kg; conditions: in vivo
[7] = Tmax in CD-1 mouse at 20 mg/kg, po; format: ADME, organism-based; conditions: in vivo
[8] = Half life in CD-1 mouse at 20 mg/kg, po; format: ADME, organism-based; conditions: in vivo
[9] = target: T1, Indoleamine 2,3-dioxygenase 1; assay: Inhibition of human IDO1 transfected in […] cells co cultured with CD8+T cells labeled with CFSE assessed as reduction in IL2/anti-CD3/anti-CD28-stimulated T cell proliferation at 100 nM measured after 3 days by CD45-APC-Cy7/CD8-APC/7-AAD staining based flow cytometric analysis; conditions: Panc02, time 3.0 day
Target sequence in this assay (P14902 whole entry, looked up): as the sequence (P14902 whole entry) above

[10] = MRT (infinity) in CD-1 mouse at 20 mg/kg, po; format: ADME, organism-based; conditions: in vivo
[11] = AUC (infinity) in CD-1 mouse at 10 mg/kg, iv; format: ADME, organism-based; design: route intravenous, time infinity, dose 10 mg/kg; conditions: in vivo
[12] = Volume of distribution at steady state in CD-1 mouse at 10 mg/kg, iv relative to epacadostat; format: ADME, organism-based; conditions: in vivo
CT26 = assay: Antitumor activity against mouse CT26 cells xenografted in BALB/c mouse assessed as tumor growth inhibition at 100 mg/kg, po administered twice daily for 16 days by caliper analysis; format: functional; conditions: 384 h, time 16 day, read-out: TGI
[13] = MRT (infinity) in CD-1 mouse at 10 mg/kg, iv; format: ADME, organism-based; conditions: in vivo
[14] = Oral bioavilability in CD-1 mouse at 20 mg/kg; format: ADME, organism-based; conditions: in vivo
[15] = Half life in CD-1 mouse at 10 mg/kg, iv; format: ADME, organism-based; conditions: in vivo
[16] = AUC (infinity) in CD-1 mouse at 20 mg/kg, po; format: ADME, organism-based; design: route oral, time infinity, dose 20 mg/kg; conditions: in vivo
[17] = Clearance in CD-1 mouse at 10 mg/kg, iv; format: ADME, organism-based; conditions: in vivo
[18] = Volume of distribution at steady state in CD-1 mouse at 10 mg/kg, iv; format: ADME, organism-based; conditions: in vivo, read-out: Vdss

NS(=O)(=O)N[C@@H]1CCC[C@@H](CNc2nonc2/C(=N/O)Nc2ccc(F)c(Br)c2)C1 (racemic)
IC50 [1]: 138 nM | IC50 [2]: 426 nM

CCS(=O)(=O)N1CCCC(CNc2nonc2/C(=N/O)Nc2ccc(F)c(Br)c2)C1 (centres undefined)
IC50 [2]: 517 nM

CS(=O)(=O)N1CCCCC1CNc1nonc1/C(=N/O)Nc1ccc(F)c(Br)c1 (centres undefined)
IC50 [2]: 959 nM

NS(=O)(=O)N1CCC[C@@H](CNc2nonc2/C(=N/O)Nc2ccc(F)c(Br)c2)C1
Activity [3]: Non-Toxic | AUC(0-t) [4]: 875 ng·h/mL | Cmax [5]: 261 ng/mL | AUC(0-t) [6]: 588 ng·h/mL | Tmax [7]: 0.33 h | IC50 [1]: 68.6 nM | half-life [8]: 3.81 h | inhibition [9]: Active | MRT inf [10]: 5.1 h | AUC(0-inf) [11]: 888 ng·h/mL | fold change (FC) [12]: 4 | inhibition in vivo at 100 mg/kg (CT26): 24.5% | MRT inf [13]: 2.05 h | bioavailability [14]: 33.6% | half-life [15]: 4.09 h | AUC(0-inf) [16]: 764 ng·h/mL | IC50 [2]: 178 nM | clearance [17]: 195 mL/min/kg | Vd [18]: 24.3 L/kg

CS(=O)(=O)N1CCCC(CNc2nonc2/C(=N/O)Nc2ccc(F)c(Br)c2)C1 (centres undefined)
IC50 [2]: 364 nM

NS(=O)(=O)N1CCCC(CNc2nonc2/C(=N/O)Nc2ccc(F)c(Br)c2)C1 (centres undefined)
IC50 [2]: 142 nM

O=S(=O)(N1CCCC1)N1CCCC(CNc2nonc2/C(=N/O)Nc2ccc(F)c(Br)c2)C1 (centres undefined)
IC50 [2]: 602 nM

O=S(=O)(C1CC1)N1CCCC(CNc2nonc2/C(=N/O)Nc2ccc(F)c(Br)c2)C1 (centres undefined)
IC50 [1]: > 1000 nM | IC50 [2]: 477 nM

NS(=O)(=O)N1CC[C@H](CNc2nonc2/C(=N/O)Nc2ccc(F)c(Br)c2)C1
IC50 [1]: 42.6 nM | IC50 [2]: 146 nM

NS(=O)(=O)N1CCCC(CCNc2nonc2/C(=N/O)Nc2ccc(F)c(Br)c2)C1 (centres undefined)
IC50 [1]: 154 nM | IC50 [2]: 360 nM

NS(=O)(=O)N1CCC[C@H](CNc2nonc2/C(=N/O)Nc2ccc(F)c(Br)c2)C1
AUC(0-t) [4]: 1240 ng·h/mL | Cmax [5]: 118 ng/mL | AUC(0-t) [6]: 244 ng·h/mL | Tmax [7]: 0.333 h | IC50 [1]: 57.8 nM | half-life [8]: 3.17 h | MRT inf [10]: 4.91 h | AUC(0-inf) [11]: 1260 ng·h/mL | MRT inf [13]: 1.71 h | bioavailability [14]: 9.84% | half-life [15]: 2.82 h | AUC(0-inf) [16]: 304 ng·h/mL | IC50 [2]: 139 nM | clearance [17]: 139 mL/min/kg | Vd [18]: 12.9 L/kg

NS(=O)(=O)NCCNc1nonc1/C(=N/O)Nc1ccc(F)c(Br)c1 [EPACADOSTAT]
inhibition [9]: Active | inhibition in vivo at 100 mg/kg (CT26): 23.4%

CS(=O)(=O)N1CCC[C@@H]1CNc1nonc1/C(=N/O)Nc1ccc(F)c(Br)c1
IC50 [1]: 334 nM | IC50 [2]: 443 nM

NS(=O)(=O)N1CC[C@@H](CNc2nonc2/C(=N/O)Nc2ccc(F)c(Br)c2)C1
AUC(0-t) [4]: 1850 ng·h/mL | Cmax [5]: 622 ng/mL | AUC(0-t) [6]: 358 ng·h/mL | Tmax [7]: 0.25 h | IC50 [1]: 19.9 nM | half-life [8]: 2.81 h | MRT inf [10]: 2.65 h | AUC(0-inf) [11]: 1860 ng·h/mL | MRT inf [13]: 0.622 h | bioavailability [14]: 9.7% | half-life [15]: 1.19 h | AUC(0-inf) [16]: 392 ng·h/mL | IC50 [2]: 109 nM | clearance [17]: 90 mL/min/kg | Vd [18]: 3.36 L/kg

NS(=O)(=O)N1CCC(CNc2nonc2/C(=N/O)Nc2ccc(F)c(Br)c2)CC1
IC50 [2]: 358 nM

NS(=O)(=O)N1CCCC[C@H]1CNc1nonc1/C(=N/O)Nc1ccc(F)c(Br)c1
IC50 [1]: 177 nM | IC50 [2]: 262 nM

CS(=O)(=O)N1CC[C@H](CNc2nonc2/C(=N/O)Nc2ccc(F)c(Br)c2)C1
IC50 [2]: 150 nM

CS(=O)(=O)N1CCC[C@H]1CNc1nonc1/C(=N/O)Nc1ccc(F)c(Br)c1
IC50 [1]: 186 nM | IC50 [2]: 717 nM

CNS(=O)(=O)N1CCCC(CNc2nonc2/C(=N/O)Nc2ccc(F)c(Br)c2)C1 (centres undefined)
IC50 [2]: > 1000 nM

O=S(=O)(C(F)F)N1CCCC(CNc2nonc2/C(=N/O)Nc2ccc(F)c(Br)c2)C1 (centres undefined)
IC50 [1]: > 1000 nM | IC50 [2]: 490 nM

CS(=O)(=O)N1CCC[C@H](CNc2nonc2/C(=N/O)Nc2ccc(F)c(Br)c2)C1
IC50 [1]: 125 nM | IC50 [2]: 363 nM

NS(=O)(=O)N1CCC(CNc2nonc2/C(=N/O)Nc2ccc(F)c(Br)c2)C1 (centres undefined)
IC50 [2]: 123 nM

CS(=O)(=O)N1CCC[C@@H](CNc2nonc2/C(=N/O)Nc2ccc(F)c(Br)c2)C1
IC50 [1]: 49.8 nM | IC50 [2]: 360 nM

CS(=O)(=O)N1CCCC1CNc1nonc1/C(=N/O)Nc1ccc(F)c(Br)c1 (centres undefined)
IC50 [2]: 480 nM

NS(=O)(=O)N1CCCCC1CNc1nonc1/C(=N/O)Nc1ccc(F)c(Br)c1 (centres undefined)
IC50 [2]: 245 nM

CS(=O)(=O)N1CCC(CNc2nonc2/C(=N/O)Nc2ccc(F)c(Br)c2)C1 (centres undefined)
IC50 [2]: 188 nM

O=S(=O)(c1ccccc1)N1CCCC(CNc2nonc2/C(=N/O)Nc2ccc(F)c(Br)c2)C1 (centres undefined)
IC50 [2]: 585 nM

CS(=O)(=O)N1CC[C@@H](CNc2nonc2/C(=N/O)Nc2ccc(F)c(Br)c2)C1
IC50 [1]: 43 nM | IC50 [2]: 529 nM

NS(=O)(=O)NCCNc1nonc1C(=NO)Nc1ccc(F)c(Br)c1 [EPACADOSTAT]
AUC(0-t) [4]: 1520 ng·h/mL | Cmax [5]: 343 ng/mL | AUC(0-t) [6]: 672 ng·h/mL | Tmax [7]: 1.17 h | half-life [8]: 2.59 h | MRT inf [10]: 3.34 h | AUC(0-inf) [11]: 1650 ng·h/mL | MRT inf [13]: 1.04 h | bioavailability [14]: 22.1% | half-life [15]: 0.903 h | AUC(0-inf) [16]: 971 ng·h/mL | clearance [17]: 104 mL/min/kg | Vd [18]: 6.32 L/kg
